Legend:
[1] = target: T1, serotonin transporter (SERT) (Rattus norvegicus, UniProt P31652); assay: Radioligand binding, [3H]-citalopram, rat cortex tissue; settings: mean ± SEM, read-out: Serotonergic pKi SERT (converted)
T1 construct: from tissue; host or cells: rat cortex
Experimental: (§1) Radioligand binding was performed on membranes from CHO-K1 cells stably transfected with the human 5-HT1A, 5-HT2A, 5-HT6, or 5-HT7 receptors. […] Binding experiments were conducted in 96-well microplates, and the reaction mix included the solution of the test compound, radioligand, and diluted membranes or the tissue suspension.
(§2) The reaction was terminated by rapid filtration through GF/B or GF/C filter mate presoaked with 0.3% polyethyleneimine for 30 min. Ten rapid washes with 200 µl 50 mM Tris buffer (4 °C, pH 7.4) were performed using an automated harvester system Harvester-96 MACH III FM (Tomtec). […] Radioactivity was counted in the MicroBeta2 scintillation counter (PerkinElmer) at approximately 30% efficiency. […] A single assay was performed with each compound concentrations in duplicate, and the whole assay was repeated in a three independent experiments.

human 5-HT7 receptor = target: T2, human 5-HT7 receptor (Homo sapiens, UniProt P34969); assay: Radioligand binding, [3H]-5-CT, CHO-K1 membranes; settings: CHO-K1 cells, mean ± SEM, read-out: Serotonergic pKi 5-HT7 (converted)
T2 construct: expressed in transfected cells; host or cells: CHO-K1 (membranes)
Experimental: as §1, §2

dopaminergic D2 receptor = dopaminergic D2 receptor (Homo sapiens, UniProt P14416); assay: Radioligand binding, [3H]-methylspiperon, CHO-K1 cells; settings: mean ± SEM, read-out: Dopaminergic pKi D2 (converted)
Experimental: as §2

mice [2] = assay: Forced swim test in naive mice; format: in vivo, mouse
Experimental: Adult male Albino-Swiss mice (CD-1, 8 weeks old, 18–21g: Jagiellonian University Medical College, Krakow, Poland) were used in all experiments. Unless stated otherwise, the animals were kept in groups of 10 mice in standard cages (37 cm × 21 cm × 15 cm) at a room temperature (22 ± 2 °C), on a 12 h light/dark cycle (lights on 7:00) with ad libitum access to food and water. Mice were used only once in each test. Behavioral experiments were performed between 8 am and 4 pm and evaluated by a trained observer blind to the treatments. Mice were handled for 1 week before starting the experimental procedures. Animals were randomly allocated to the treatment using a computer-generated sequence, and researchers making measurements on the animals or analyzing the results were blind to the allocation. Moreover, experimental groups were distributed across multiple cages, and the location of the mouse cages in the room was changed following each day.
HBK-10, WAY-100635 (Sigma, Darmstadt, Germany), p-chlorophenylalanine (pCPA; Sigma, Darmstadt, Germany), fluoxetine (Sigma, Darmstadt, Germany), reboxetine (Sigma, Darmstadt, Germany) and bupropion (Sigma, Darmstadt, Germany), were suspended in 1% Tween, and administered ip at a volume of 10 mL/kg 30 min before each behavioral test. The control groups received saline ip 30 min prior to testing. The doses of fluoxetine, reboxetine and bupropion as well as WAY-100635 and pCPA were based on our previous studies with 2-methoxyphenylpiperazine derivatives.
The experiment was performed on mice according to the method described by Porsolt et al. and as previously described. Mice were placed individually in glass cylinders (height 25 cm, diameter 10 cm) filled with water at 24 ± 1 °C to a depth of 10 cm and left there for 6 min. Following a 2 min habituation period, total time spent immobile was recorded during the next 4 min. The animal was considered as immobile when it remained floating passively in the water, making only small movements to keep its head above the water. The experiments were video-recorded and scored using elevenmaze.com software by a trained observer blind to the treatments.
To assess the involvement of a serotonergic system in the antidepressant-like activity of tested compounds in the forced swim test, the mice were pretreated with pCPA (tryptophan hydroxylase inhibitor) according to the method previously described. […]. Twenty-four hours after the last pCPA administration, we injected mice with 1% Tween ip or tested compound. We performed the forced swim test 30 min after the administration.
The putative involvement of 5-HT1A receptors in the antidepressant-like effect of tested compound was studied using WAY-100635 (a selective 5-HT1A receptor antagonist). WAY-100635 at a dose of 0.1 mg/kg was administered sc 15 min prior to the injection of HBK-10. After 30 min the forced swim test was performed. The behaviorally ineffective dose of WAY-100635 used in the experiments was based on our previous experiments.

[3] = tested on: corticosterone-treated mice; assay: Locomotor activity in corticosterone-treated mice; format: in vivo, mouse; settings: 4 min
Experimental: The locomotor activity of mice was measured as previously described. We used photoresistor actometers (Ugo Basile, Italy) connected to a counter for the recording of light-beam interruptions. Mice were placed individually in cages for 30 min, and the number of crossings of the light beams was recorded as the locomotor activity for 4 min.
Mice were injected with corticosterone (sc, 20 mg/kg) at random times during the light phase for 21 days. The dose and route of administration of corticosterone were based on our previous study. Control mice received saline containing 0.1% dimethyl sulfoxide (DMSO) and 0.1% Tween (sc). For the next 21 days, 30 min before the corticosterone injection, mice were injected with saline, HBK-10 (0.625 or 1.25 mg/kg), or fluoxetine (15 mg/kg) (ip). Twenty-four hours after the last injection, animals were tested in the forced swim test and locomotor activity test (Figure 8).

Chimney test in mice = format: in vivo, mouse; settings: mouse, in vivo; ip, log-probit method
Experimental: (§3) The chimney test was performed as previously described. The mice were trained before the test, and only those animals able to get out of the chimney within 1 min, were used at the experimental stage. The selected mice were placed in a 25 cm long and 2.5 cm in diameter horizontally located tube, which was reversed so that the mice could leave it only by climbing up backward until they reached the other end. Motor impairment was indicated by the inability of the mice to perform the test within 60 s. The number of animals unable to climb backward within 60 s was recorded, and TD50 values were calculated.

mice [4] = assay: Chimney test in mice; format: in vivo, mouse
Experimental: as §3

dopaminergic D2 receptor, sequence (P14416 whole entry): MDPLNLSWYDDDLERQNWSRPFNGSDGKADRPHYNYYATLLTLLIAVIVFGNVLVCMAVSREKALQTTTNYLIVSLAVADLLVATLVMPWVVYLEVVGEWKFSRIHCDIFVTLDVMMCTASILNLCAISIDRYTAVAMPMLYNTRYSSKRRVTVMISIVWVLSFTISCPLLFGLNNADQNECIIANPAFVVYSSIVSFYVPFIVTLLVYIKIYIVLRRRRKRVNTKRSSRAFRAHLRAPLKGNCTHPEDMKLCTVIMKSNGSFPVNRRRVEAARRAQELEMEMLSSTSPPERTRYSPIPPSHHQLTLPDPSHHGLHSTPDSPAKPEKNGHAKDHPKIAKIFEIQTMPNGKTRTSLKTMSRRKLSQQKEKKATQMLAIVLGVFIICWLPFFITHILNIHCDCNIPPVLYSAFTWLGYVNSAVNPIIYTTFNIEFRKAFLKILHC
T1 sequence (P31652 whole entry): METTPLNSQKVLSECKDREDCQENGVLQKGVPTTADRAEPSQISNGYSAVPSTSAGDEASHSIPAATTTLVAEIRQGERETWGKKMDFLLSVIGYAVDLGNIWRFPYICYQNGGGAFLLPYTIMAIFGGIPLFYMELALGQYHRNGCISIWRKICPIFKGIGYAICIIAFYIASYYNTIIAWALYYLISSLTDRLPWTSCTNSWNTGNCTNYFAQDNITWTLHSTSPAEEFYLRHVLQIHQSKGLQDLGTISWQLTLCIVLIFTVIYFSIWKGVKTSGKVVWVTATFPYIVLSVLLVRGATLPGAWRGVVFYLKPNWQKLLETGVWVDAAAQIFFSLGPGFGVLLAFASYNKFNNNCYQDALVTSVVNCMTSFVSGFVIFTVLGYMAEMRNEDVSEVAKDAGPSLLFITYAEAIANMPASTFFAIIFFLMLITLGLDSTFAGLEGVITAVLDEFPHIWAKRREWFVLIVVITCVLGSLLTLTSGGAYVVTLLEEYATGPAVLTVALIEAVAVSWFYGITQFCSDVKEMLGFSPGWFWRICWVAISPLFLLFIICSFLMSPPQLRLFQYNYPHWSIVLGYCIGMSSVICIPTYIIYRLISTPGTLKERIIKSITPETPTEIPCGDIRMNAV
T2 sequence (P34969 whole entry): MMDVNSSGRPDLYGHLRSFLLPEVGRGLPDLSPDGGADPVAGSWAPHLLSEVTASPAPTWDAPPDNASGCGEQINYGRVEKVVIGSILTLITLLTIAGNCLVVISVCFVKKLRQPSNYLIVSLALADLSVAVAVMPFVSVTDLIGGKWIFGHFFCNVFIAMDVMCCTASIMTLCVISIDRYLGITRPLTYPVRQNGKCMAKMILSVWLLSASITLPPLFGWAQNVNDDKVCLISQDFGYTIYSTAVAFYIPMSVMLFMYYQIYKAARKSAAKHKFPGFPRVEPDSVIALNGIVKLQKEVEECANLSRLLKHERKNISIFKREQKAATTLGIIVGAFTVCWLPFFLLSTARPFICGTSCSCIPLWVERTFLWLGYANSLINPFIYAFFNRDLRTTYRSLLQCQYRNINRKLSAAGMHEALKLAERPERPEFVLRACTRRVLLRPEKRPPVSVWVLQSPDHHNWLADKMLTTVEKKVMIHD

CCC(CN1CCN(c2ccccc2OC)CC1)NCCCOc1c(C)cccc1C.Cl.Cl (stereo not drawn) [HBK-10, N-(3-(2,6-dimethylphenoxy)propyl)-1-(4-(2-methoxyphenyl)piperazin-1-yl)butan-2-amine dihydrochloride]
Ki [1]: 3.72 µM
Ki (human 5-HT7 receptor): 6.31 µM
Ki (dopaminergic D2 receptor): 0.0501 µM
Reduction of immobility in the forced swim test (mice [2]; 1.25 mg/kg ip, WAY-100635 experiment, no pretreatment): 35.7%
Reduction of immobility in the forced swim test (mice [2]; 1.25 mg/kg ip, pCPA experiment, no pretreatment): 28.1%
Reduction of immobility in the forced swim test (mice [2]; 1st of five values, dose range 1.25–10 mg/kg ip, 30 min before test (lowest dose 1.25 mg/kg)): 21.1%
Reduction of immobility in the forced swim test (mice [2]; 2nd of five values, dose range 1.25–10 mg/kg ip, dose not given): 23.5%
Reduction of immobility in the forced swim test (mice [2]; 3rd of five values, dose range 1.25–10 mg/kg ip, dose not given): 26.6%
Reduction of immobility in the forced swim test (mice [2]; 4th of five values, dose range 1.25–10 mg/kg ip, dose not given): 44.2%
Reduction of immobility in the forced swim test (mice [2]; 5th of five values, dose range 1.25–10 mg/kg ip (highest dose 10 mg/kg)): 47.2%
Effect on immobility in the forced swim test, combined administration (mice [2]; HBK-10 0.625 mg/kg combined with bupropion 2.5 mg/kg, ip): did not significantly decrease the immobility
Decrease of immobility in the forced swim test, combined administration (mice [2]; HBK-10 0.625 mg/kg combined with fluoxetine 10 mg/kg, ip): 40.9%
Decrease of immobility in the forced swim test, combined administration (mice [2]; HBK-10 0.625 mg/kg combined with reboxetine 5 mg/kg, ip): 57.7%
Antidepressant-like effect in the forced swim test after pCPA pretreatment (mice [2]; HBK-10 1.25 mg/kg ip after pCPA 200 mg/kg for three days): abolished
Antidepressant-like effect in the forced swim test after WAY-100635 pretreatment (mice [2]; HBK-10 1.25 mg/kg ip, WAY-100635 0.1 mg/kg sc 15 min before): abolished
Active dose in the forced swim test, fold lower than escitalopram (mice [2]; comparator data ref 19, 42): 2 fold
Active dose in the forced swim test, fold lower than reboxetine (mice [2]; comparator data ref 19, 42): 8 fold
Activity in the forced swim test at 0.625 mg/kg (mice [2]; naive mice, 0.625 mg/kg, single administration): inactive
Lowest active dose in the forced swim test (mice [2]; naive mice, single administration): 1.25 mg/kg
Number of Crossings ± SEM ([3]; 0.625 mg/kg ip chronic): 431.1 ± 47.92
Number of Crossings ± SEM ([3]; 1.25 mg/kg ip chronic): 453.9 ± 41.27
TD50 at 30 min (Chimney test in mice): 21.7 mg/kg
% of Animals That Did Not Climb out the Chimney (mice [4]; 10 mg/kg ip): 20%
% of Animals That Did Not Climb out the Chimney (mice [4]; 20 mg/kg ip): 40%
% of Animals That Did Not Climb out the Chimney (mice [4]; 30 mg/kg ip): 64%
% of Animals That Did Not Climb out the Chimney (mice [4]; 40 mg/kg ip): 87%
% of Animals That Did Not Climb out the Chimney (mice [4]; 60 mg/kg ip): 90%

Reference: paper PMC8400343, “Synthesis and Evaluation of the Antidepressant-like Properties of HBK-10, a Novel 2-Methoxyphenylpiperazine Derivative Targeting the 5-HT1A and D2 Receptors” (Pharmaceuticals, 2021)
